Experimental data reported in paper PMC5702617, “Novel peptide probes to assess the tensional state of fibronectin fibers in cancer” (Nature Communications, 2017).
Residues, ends and D or L forms follow the SMILES beside them. *: point of attachment. X2 = N=c1ccc2c(-c3ccc(C(=O)NCCCCCN4C(=O)CC(*)C4=O)cc3C(=O)O)c3ccc(N)c(S(=O)(=O)O)c3oc-2c1S(=O)(=O)O

Tests used:
relaxed Fn fibers = relaxed Fn fibers (Homo sapiens, UniProt P02751); assay: Single Fn fiber binding assay, relaxed fibers; settings: relaxed fibers (7% strain), 30 fibers from three independent experiments, Student's t test
relaxed Fn fibers, sequence (P02751 32-2477): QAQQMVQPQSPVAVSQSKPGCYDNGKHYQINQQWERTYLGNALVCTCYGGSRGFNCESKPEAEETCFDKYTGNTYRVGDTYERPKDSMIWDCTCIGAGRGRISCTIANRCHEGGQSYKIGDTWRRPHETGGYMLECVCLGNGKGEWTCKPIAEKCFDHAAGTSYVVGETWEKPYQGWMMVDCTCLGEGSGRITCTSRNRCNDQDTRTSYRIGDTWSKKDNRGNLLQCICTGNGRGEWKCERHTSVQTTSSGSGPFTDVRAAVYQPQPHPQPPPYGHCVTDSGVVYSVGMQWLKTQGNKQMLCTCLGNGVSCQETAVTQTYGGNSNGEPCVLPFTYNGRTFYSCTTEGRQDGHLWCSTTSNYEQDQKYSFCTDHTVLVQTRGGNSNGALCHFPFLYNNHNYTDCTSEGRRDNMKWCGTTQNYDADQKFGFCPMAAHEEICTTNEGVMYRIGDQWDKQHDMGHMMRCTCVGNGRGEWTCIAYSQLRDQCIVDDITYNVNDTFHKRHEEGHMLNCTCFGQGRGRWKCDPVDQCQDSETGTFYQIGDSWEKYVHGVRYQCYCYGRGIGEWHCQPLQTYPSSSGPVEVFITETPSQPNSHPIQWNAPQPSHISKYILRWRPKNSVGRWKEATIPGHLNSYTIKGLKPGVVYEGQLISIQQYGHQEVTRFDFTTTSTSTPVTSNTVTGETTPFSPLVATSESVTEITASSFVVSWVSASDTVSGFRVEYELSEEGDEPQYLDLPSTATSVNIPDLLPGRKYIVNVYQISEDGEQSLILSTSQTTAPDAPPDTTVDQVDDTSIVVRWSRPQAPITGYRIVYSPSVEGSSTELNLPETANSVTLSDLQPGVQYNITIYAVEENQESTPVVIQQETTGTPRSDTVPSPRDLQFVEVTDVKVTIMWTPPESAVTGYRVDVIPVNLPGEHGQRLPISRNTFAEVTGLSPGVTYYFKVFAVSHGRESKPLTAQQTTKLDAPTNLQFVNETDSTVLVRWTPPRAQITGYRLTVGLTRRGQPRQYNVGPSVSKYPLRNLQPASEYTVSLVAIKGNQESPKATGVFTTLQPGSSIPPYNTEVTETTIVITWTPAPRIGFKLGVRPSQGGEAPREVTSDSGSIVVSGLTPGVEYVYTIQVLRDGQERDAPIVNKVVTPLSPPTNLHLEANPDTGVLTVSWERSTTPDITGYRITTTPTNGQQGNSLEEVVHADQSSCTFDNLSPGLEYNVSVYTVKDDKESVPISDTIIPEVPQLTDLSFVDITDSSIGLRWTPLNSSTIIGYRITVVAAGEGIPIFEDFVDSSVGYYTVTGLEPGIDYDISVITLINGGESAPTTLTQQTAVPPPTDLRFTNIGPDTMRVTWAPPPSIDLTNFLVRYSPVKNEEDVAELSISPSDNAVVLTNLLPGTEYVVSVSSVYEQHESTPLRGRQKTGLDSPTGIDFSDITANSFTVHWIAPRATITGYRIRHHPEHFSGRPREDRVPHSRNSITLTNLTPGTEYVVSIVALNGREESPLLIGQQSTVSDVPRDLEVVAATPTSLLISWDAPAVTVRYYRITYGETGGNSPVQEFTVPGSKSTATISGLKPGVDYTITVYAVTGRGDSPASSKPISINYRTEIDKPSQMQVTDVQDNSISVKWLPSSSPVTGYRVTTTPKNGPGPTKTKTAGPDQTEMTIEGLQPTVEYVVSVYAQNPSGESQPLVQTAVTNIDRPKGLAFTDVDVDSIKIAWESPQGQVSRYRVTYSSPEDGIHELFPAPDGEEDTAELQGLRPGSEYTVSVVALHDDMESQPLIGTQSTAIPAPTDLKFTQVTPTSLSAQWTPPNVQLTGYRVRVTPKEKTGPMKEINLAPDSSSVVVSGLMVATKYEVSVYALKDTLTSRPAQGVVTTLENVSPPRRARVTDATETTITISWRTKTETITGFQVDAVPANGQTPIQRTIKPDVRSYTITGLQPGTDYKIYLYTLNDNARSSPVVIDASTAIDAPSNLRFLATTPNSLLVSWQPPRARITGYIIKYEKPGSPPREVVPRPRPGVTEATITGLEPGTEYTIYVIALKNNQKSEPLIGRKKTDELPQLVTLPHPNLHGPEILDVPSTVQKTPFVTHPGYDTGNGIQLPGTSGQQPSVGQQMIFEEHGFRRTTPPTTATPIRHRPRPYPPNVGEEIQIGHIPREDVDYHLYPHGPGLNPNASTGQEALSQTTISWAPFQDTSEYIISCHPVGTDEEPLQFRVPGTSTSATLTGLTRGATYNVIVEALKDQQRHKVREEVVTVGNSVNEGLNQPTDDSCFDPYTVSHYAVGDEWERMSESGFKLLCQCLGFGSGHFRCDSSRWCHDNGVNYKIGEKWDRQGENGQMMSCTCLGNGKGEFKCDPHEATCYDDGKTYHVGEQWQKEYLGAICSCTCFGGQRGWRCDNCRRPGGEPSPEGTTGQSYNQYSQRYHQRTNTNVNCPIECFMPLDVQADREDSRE
Text: (§1) Fn fibers were manually pulled from a concentrated droplet of Fn in PBS (95% unlabeled and 5% Cy5-labeled protein) using a sharp pipette tip and deposited onto a flexible silicone sheet (SMI, USA)[41], rinsed and rehydrated in PBS (schematically shown in Fig. 2c). For affinity measurement Fn fibers were deposited onto a pre-stretched sheet and subsequently relaxed to about a strain of 7% as defined earlier. For measurements of the strain-sensitive binding behavior, fibers were either relaxed or stretched (about 380% strain). […]
Single Fn fiber samples were imaged with an Olympus FV 1000 confocal microscope (Olympus AG, Switzerland) using a 40× water immersion objective with a numerical aperture of 0.9. […] Samples were excited with a 488 nm laser and acceptor (Alexa-546) and donor (Alexa-488) signal was detected in two PMTs using a 12 nm detection bandwidth for donor (514–526 nm) and acceptor (566–578 nm)[25]. […]
Images were analyzed using Fiji-ImageJ and Matlab (MathWorks, Switzerland). For the Fn fiber affinity study, the pixel-wise ratio of FnBPA5-Alexa- 488 signal intensity divided by Fn-Cy5 intensity was calculated for each fiber, if intensities were above a cut-off threshold and below saturation. […] Correction factors for donor bleed through and direct activation of the acceptor used for the analysis were experimentally assessed as shown in Supplementary Fig. 5b, c. […]

[1] = target: relaxed and stretched Fn fibers (Homo sapiens, UniProt P02751); assay: Fn fiber stretch assay, relaxed vs stretched fibers; format: binding; settings: relaxed (7% strain) vs stretched (380% strain) fibers, three independent experiments, p < 0.001
relaxed and stretched Fn fibers, sequence (P02751 32-2477): as above
Text: as §1
Images were analyzed using Fiji-ImageJ and Matlab (MathWorks, Switzerland). For the Fn fiber affinity study, the pixel-wise ratio of FnBPA5-Alexa- 488 signal intensity divided by Fn-Cy5 intensity was calculated for each fiber, if intensities were above a cut-off threshold and below saturation. […] Correction factors for donor bleed through and direct activation of the acceptor used for the analysis were experimentally assessed as shown in Supplementary Fig. 5b, c. […] FRET acceptor channel was corrected for donor bleed through which was measured to be ~20% of the acceptor intensity (Supplementary Fig. 5b). Further analysis such as FRET-Fn-FnBPA5/Fn ratio quantifications were carried out in MatLab.

[2] = target: fibrillar Fn in human dermal fibroblast ECM (Homo sapiens, UniProt P02751); assay: Binding to ECM assembled by human dermal fibroblasts; format: cell-based; settings: 5 μg ml−1 peptide, 1 h prior to fixation, confocal microscopy
fibrillar Fn in human dermal fibroblast ECM, sequence (P02751 32-273 limits assumed): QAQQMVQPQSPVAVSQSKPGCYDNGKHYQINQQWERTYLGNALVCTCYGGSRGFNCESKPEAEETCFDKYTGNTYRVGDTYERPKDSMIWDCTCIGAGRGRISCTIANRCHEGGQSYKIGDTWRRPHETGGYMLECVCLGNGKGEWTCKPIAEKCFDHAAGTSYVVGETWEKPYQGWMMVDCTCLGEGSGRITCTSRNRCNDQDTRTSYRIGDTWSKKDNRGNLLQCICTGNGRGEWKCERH
Experimental: Normal human dermal fibroblasts (PromoCell, Vitaris AG, Switzerland) were cultured in alpha minimum essential medium (α-MEM) with 10% fetal bovine serum from BioWest (Nuaillé, France), and split before reaching confluence. Cells were seeded onto Fn-coated 8-well chambered cover glasses (Nunc^TM Lab-Tek^TM Chambered Coverglass, Thermo Fisher Scientific, Reinach, Switzerland) at a density of 50 × 10^3 cells per cm^2 and allowed to attach to the surface before medium exchange to medium containing 50 μg ml^−1 Fn. Dependent on the experiment, a fraction of only 10% of exogenous Fn was double-labeled for FRET analysis to prevent intermolecular FRET. Cells in Figs. 2h and 3 were cultured for 48 h. […] After fixation with a 4% paraformaldehyde solution in PBS, the samples shown in Fig. 3 were stained using DAPI (Invitrogen^TM, Thermo Fisher Scientific, Switzerland) and were further analyzed by means of confocal microscopy, whereas samples shown in Fig. 2h were blocked by 4% donkey serum (Abcam, Switzerland) for 1 h at room temperature and fibronectin was stained using a rabbit polyclonal anti-fibronectin antibody (1:50 diluted, ab23750, Abcam, Switzerland). Samples shown in Fig. 2h were then incubated for 1 h with a donkey anti-rabbit Alexa-546 secondary antibody (Invitrogen^TM, Thermo Fisher Scientific, Switzerland).

## CC[C@H](C)[C@H](NC(=O)CNC(=O)[C@H](CCCCN)NC(=O)[C@@H](NC(=O)[C@H](CO)NC(=O)[C@H](CCC(=O)O)NC(=O)[C@H](CCC(=O)O)NC(=O)[C@H](CC(=O)O)NC(=O)[C@H](Cc1ccccc1)NC(=O)[C@H](CCC(=O)O)NC(=O)[C@@H](NC(=O)[C@H](CC(C)C)NC(=O)[C@H](CC(N)=O)NC(=O)[C@H](CO)NC(=O)[C@H](CCC(=O)O)NC(=O)[C@@H](NC(=O)[C@@H](NC(=O)[C@@H](NC(=O)[C@H](CCC(N)=O)NC(=O)CNC(=O)CNC(=O)CNC(=O)[C@@H](N)CSC1CC(=O)N(CCCCCNC(=O)c2ccc(-c3c4ccc(=N)c(S(=O)(=O)O)c-4oc4c(S(=O)(=O)O)c(N)ccc34)c(C(=O)O)c2)C1=O)C(C)C)[C@@H](C)O)[C@@H](C)O)C(C)C)[C@@H](C)O)C(=O)N[C@H](C(=O)N[C@H](C(=O)NCC(=O)N[C@@H](C)C(=O)N[C@H](C(=O)N[C@@H](CO)C(=O)N[C@@H](CC(=O)O)C(=O)N[C@@H](Cc1c[nH]cn1)C(=O)N[C@H](C(=O)N[C@H](C(=O)N[C@H](C(=O)N[C@@H](CCC(=O)O)C(=O)N[C@@H](CC(=O)O)C(=O)N[C@H](C(=O)N[C@@H](CCCCN)C(=O)O)[C@@H](C)O)C(C)C)[C@@H](C)O)[C@@H](C)O)C(C)C)[C@@H](C)O)C(C)C (stereo partly shown) [FnBPA5-Alexa488] (H-C(X2)GGGQVTTESNLVEFDEESTKGIVTGAVSDHTTVEDTK-OH; N-terminus and C-terminus assumed)
Relaxed Fn fibers
  binding to single relaxed Fn fibers (words): significant higher binding
Relaxed Fn fibers; listed as FnBPA5-Alexa-488
  binding to single relaxed Fn fibers (words): significantly higher binding to Fn fibers than the scrambled control peptide
[1]
  strain-dependent binding, FnBPA5/Fn ratio: significantly higher peptide binding of FnBPA5 to relaxed Fn fibers compared to stretched fibers
[2]
  binding to fibroblast-assembled ECM: Specific binding to fibrillar Fn
